Experimental findings from patent US6610846B1, “Heteroaromatic glucokinase activators” (Hoffman-La Roche Inc., priority 1999, dated 2003) are described below.

The test system of one series is C57BL/6J mice. The series can be described thus: Glucokinase activator in vivo screen (blood glucose after oral dosing). The settings on record: administered orally, 50 mg/kg, C57BL/6J mice fasted two hours; decrease in blood glucose compared to vehicle over six hours (Example B). As for the experimental part:
Glucokinase Activator In Vivo Screen Protocol
C57BL/6J mice are orally dosed via gavage with Glucokinase (GK) activator at 50 mg/kg body weight following a two hour fasting period. Blood glucose determinations are made five times during the six hour post-dose study period. Mice (n=6) are weighed and fasted for a two hour period prior to oral treatment.

The term melting point denotes the temperature, or range, at which the solid turns liquid. Regarding `Cc1csc(NC(=O)[C@H](CC2CCCC2)c2ccc(S(C)(=O)=O)cc2)n1` [Example 128, 3-Cyclopentyl-2(R)-(4-methanesulfonyl-phenyl)-N-(4-methyl-thiazol-2-yl)-propionamide], the melting point was in the range of 83 to 87 °C. The “glucokinase activator in vivo activity” value in the series with C57BL/6J mice is given as “excellent glucokinase activator in vivo activity”.

In turn, `O=C(Nc1nccs1)C(CC1CCCC1)c1ccc(S(=O)(=O)C(F)(F)F)cc1` (stereo not drawn) [Example 11(A), 3-Cyclopentyl-N-thiazol-2-yl-2-(4-trifluoromethanesulfonyl-phenyl)-propionamide] displayed a melting point of 189 to 191 °C. For the same compound, the “glucokinase activator in vivo activity” value with C57BL/6J mice is reported as “excellent glucokinase activator in vivo activity”.

The compound `CS(=O)(=O)c1ccc(C(CC2CCCC2)C(=O)Nc2ncc(Cl)s2)cc1` (stereo not drawn) [Example 130, N-(5-Chloro-thiazol-2-yl)-3-cyclopentyl-2-(4-methanesulfonyl-phenyl)-propionamide] registered a melting point of 76 to 79 °C. For the same compound, the “glucokinase activator in vivo activity” value in the series on C57BL/6J mice is recorded as “excellent glucokinase activator in vivo activity”.

`Cc1cnc(NC(=O)[C@H](CC2CCCC2)c2ccc(S(C)(=O)=O)cc2)s1` [Example 129, 3-Cyclopentyl-2(R)-(4-methanesulfonyl-phenyl)-N-(5-methyl-thiazol-2-yl)-propionamide]: the melting point was in the range of 81 to 85 °C. In addition, the “glucokinase activator in vivo activity” value in the series with C57BL/6J mice is given as “excellent glucokinase activator in vivo activity”.

As for `CS(=O)(=O)c1ccc(C(CC2CCCC2)C(=O)Nc2ccccn2)cc1Br` (stereo not drawn) [Example 73, 2-(3-Bromo-4-methanesulfonyl-phenyl)-3-cyclopentyl-N-pyridin-2-yl-propionamide], the melting point is 99 to 101 °C. Further, in the series with C57BL/6J mice, the “glucokinase activator in vivo activity” value was “excellent glucokinase activator in vivo activity”.

The compound `CS(=O)(=O)c1ccc(C(CC2CCCC2)C(=O)Nc2ccccn2)cc1C#N` (stereo not drawn) [Example 76, 2-(3-Cyano-4-methanesulfonyl-phenyl)-3-cyclopentyl-N-pyridin-2-yl-propionamide] registered a melting point of 87 to 90 °C. In addition, in the series on C57BL/6J mice, the “glucokinase activator in vivo activity” value is reported as “excellent glucokinase activator in vivo activity”.

`O=C(Nc1nccs1)C(CC1CCCC1)c1ccc(OC(F)(F)F)cc1` (stereo not drawn) [Example 112, 3-Cyclopentyl-N-thiazol-2-yl-2-(4-trifluoromethoxy-phenyl)-propionamide] yielded a melting point of 168 to 170 °C. Also, the “glucokinase activator in vivo activity” value with C57BL/6J mice was “excellent glucokinase activator in vivo activity”.

For `CCS(=O)(=O)c1ccc(C(CC2CCCC2)C(=O)Nc2nccs2)cc1` (stereo not drawn) [Example 77, 3-Cyclopentyl-2-(4-ethanesulfonyl-phenyl)-N-thiazol-2-yl-propionamide], the melting point is 178 to 179 °C. In the series with C57BL/6J mice, the “glucokinase activator in vivo activity” value is “excellent glucokinase activator in vivo activity”.

Consider `CS(=O)(=O)c1ccc([C@@H](CC2CCCC2)C(=O)Nc2ccncn2)cc1C(F)(F)F` [Example 157(A), 3-Cyclopentyl-2(R)-(4-methanesulfonyl-3-trifluoromethyl-phenyl)-N-pyrimidin-4-yl-propionamide], for which the melting point fell in the range of 85 to 90 °C. For the same compound, in the series with C57BL/6J mice, the “glucokinase activator in vivo activity” value is “excellent glucokinase activator in vivo activity”.

Consider `O=C(Nc1ccccn1)C(CC1CCCC1)c1ccc(S(=O)(=O)C(F)(F)F)cc1` (stereo not drawn) [Example 43(A), 3-Cyclopentyl-N-pyridin-2-yl-2-(4-trifluoromethanesulfonyl-phenyl)-propionamide], for which the melting point was 151 to 153 °C. Further, the “glucokinase activator in vivo activity” value with C57BL/6J mice was “excellent glucokinase activator in vivo activity”.

As to `O=C(Nc1ccccn1)C(CC1CCCC1)c1ccc(C(F)(F)F)c(F)c1` (stereo not drawn) [Example 71, 3-Cyclopentyl-2-(3-fluoro-4-trifluoromethyl-phenyl)-N-pyridin-2-yl-propionamide], the melting point fell in the range of 40 to 44 °C. The “glucokinase activator in vivo activity” value in the series with C57BL/6J mice is recorded as “excellent glucokinase activator in vivo activity”.

In turn, `CS(=O)(=O)c1ccc(C(CC2CCCC2)C(=O)Nc2nccs2)cc1C(F)(F)F` (stereo not drawn) [Example 89(A), 3-Cyclopentyl-2-(4-methanesulfonyl-3-trifluoromethyl-phenyl)-N-thiazol-2-yl-propionamide] registered a melting point of 95 to 100 °C. The “glucokinase activator in vivo activity” value in the series with C57BL/6J mice is listed as “excellent glucokinase activator in vivo activity”.

Compound `CS(=O)(=O)c1ccc(C(CC2CCCC2)C(=O)Nc2nccs2)cc1C#N` (stereo not drawn) [Example 75, 2-(3-Cyano-4-methanesulfonyl-phenyl)-3-cyclopentyl-N-thiazol-2-yl-propionamide] displayed a melting point of 145 to 148 °C. In addition, in the series on C57BL/6J mice, the “glucokinase activator in vivo activity” value is reported as “excellent glucokinase activator in vivo activity”.

In turn, `CS(=O)(=O)c1ccc(C(CC2CCCC2)C(=O)Nc2nccs2)cc1Br` (stereo not drawn) [Example 72, 2-(3-Bromo-4-methanesulfonyl-phenyl)-3-cyclopentyl-N-thiazol-2-yl-propionamide] displayed a melting point of 106 to 107 °C. Also, the “glucokinase activator in vivo activity” value in the series with C57BL/6J mice is “excellent glucokinase activator in vivo activity”.

The compound `O=C(Nc1ccccn1)C(CC1CCCC1)c1ccc(Cl)c([N+](=O)[O-])c1` (stereo not drawn) [Example 65, 2-(4-Chloro-3-nitro-phenyl)-3-cyclopentyl-N-pyridin-2-yl-propionamide] registered a melting point of 48 to 52 °C. Moreover, in the series on C57BL/6J mice, the “glucokinase activator in vivo activity” value was “excellent glucokinase activator in vivo activity”.
